Data from patent publication US12419305B2, “Antimicrobial compositions” (Firmenich SA, priority 2018, dated 2025).

Legend:
[1] = tested on: E. coli ATCC 10536; experiment: BCT test (bacterial contact time), 45 s, log reduction / effect fraction; CI by Compusyn; type: cell-based, Escherichia coli; conditions: 45 s, in 20% EtOH
Protocol: (§1) E. coli, S. aureus, P. aeruginosa, and S. enterica: Separate suspensions of the E. coli ATCC 10536 strain, S. aureus ATCC 6538 strain, Pseudomonas aeruginosa ATCC 15442 strain, and the Salmonella enterica ATCC 10708 strain were prepared as follows: Stock cultures (stored at −80° C.) were thawed and sub-cultured onto Tryptic Soy Agar (TSA) agar plate media, and incubated at 37° C. for 24 h to obtain single colonies. Single colonies of the primary cultures were streaked onto TSA plates and incubated at 37° for 24 h to generate secondary cultures. Single colonies of secondary cultures picked and used to inoculate into 50 mL of TSB broth. The inoculated TSB broth was incubated at 37° C. at 180 rpm for 18 h. Aliquots (0.5 ml) of the 18 h culture were inoculated into 50 ml of fresh TSB broth, and incubated at 37° C. at 180 rpm for 2-3 hours. When the OD600 nm value of the broth reached 1-2, cells were harvested by centrifugation at 5000 rpm for 10 min, and then resuspended in fresh TSB broth at a concentration of 1-5×10^8 CFU/mL. These suspensions were used as the bacterial suspensions for the BCT test.
(§2) BCT Test: Test compositions at a range of concentrations (either combinations of more than one perfume ingredient, and comparative compositions comprising the single perfume ingredients) were prepared in ethanol. Five replicates of each test composition were added into 96-well microtiter plates (120 μl per well), with row B containing control compositions containing the ethanol solution alone. 120 μl of bacterial cell suspensions at a concentration of approximately 1×10^8 bacteria per mL (as prepared above) were added to each well of the microtiter plate. The bacterial suspensions were incubated with the test solutions for 45, 60, or 120 seconds. Following the incubation of the bacterial suspensions with the test solutions, serial dilutions of the bacterial suspensions were generated (three serial 1:10 dilutions, followed by 17 serial 1:2 dilutions), in multiwell microtiter plates.
(§3) Each plate was sealed and incubated at 37° C. under agitation (180 rpm). After incubation, the turbidity of the wells (OD600 nm) was determined using a Tecan microplate reader. Turbid wells were regarded as positive growth, due to the presence of viable cells. The total number of viable cells (log CFU) for each sample was calculated. And the log reduction for each test composition at the final concentration (dose) was calculated against the control sample of the ethanol solution.
(§4) Determination of Synergy via the Combination Index (CI): The CI was calculated using Compusyn software (ComboSyn, Inc., as created by Dr. Dorothy Chou in 2005), according to the manufacturer's instructions. The concentration of each test composition (combinations of more than one perfume ingredient, and comparative compositions comprising the single perfume ingredients used to generate the combination) and their corresponding effect fraction was entered, and the corresponding CI calculated.
(§5) When the calculated CI values were less than 0.9, the combination of perfume ingredients was regarded as having synergistic effect. When the calculated CI was between 1.0 a 0.9, the combination of perfume ingredients was regarded as having an additive effect. When the calculated CI was greater than 1.0, the combination of perfume ingredients was regarded as having an antagonistic effect.

[2] = tested on: S. aureus ATCC 6538; experiment: BCT test (bacterial contact time), 60 s, log reduction / effect fraction; CI by Compusyn; type: cell-based, Staphylococcus aureus; conditions: in 25% EtOH
Protocol: as §1, §2, §3, §4, §5

[3] = tested on: Pseudomonas aeruginosa ATCC 15442; experiment: as above; type: cell-based; conditions: Pseudomonas aeruginosa, ATCC15442, 1 min, BCT 60 s, in 25% EtOH
Protocol: as §1, §2, §3, §4, §5

[4] = tested on: Salmonella enterica ATCC 10708; experiment: as above; type: cell-based; conditions: BCT 60 s, in 25% EtOH
Protocol: as §1, §2, §3, §4, §5

## COc1ccc(C=O)cc1 [Aldehyde Anisic, 4-methoxybenzaldehyde]
[1]; Escherichia coli, ATCC10536, 45 s, dose 0.400 % w/v
  log reduction at 0.4 % strength: 0.3
[1]; Escherichia coli, ATCC10536, 45 s, dose 0.450 % w/v, read-out: Log reduction
  log reduction at 0.45 % strength: 0.6
[1]; Escherichia coli, ATCC10536, 45 s, dose 0.500 % w/v
  log reduction at 0.5 % strength: 2.7
[1]; Escherichia coli, ATCC10536, 45 s, dose 0.550 % w/v, read-out: Log reduction
  log reduction at 0.55 % strength: 6.7
[1]; Escherichia coli, ATCC10536, 45 s, dose 0.600 % w/v, read-out: Log reduction
  log reduction at 0.6 % strength: 7.3
[2]; Staphylococcus aureus, ATCC6538, 1 min, dose 0.500 % w/v, 60 s, read-out: Log reduction
  log reduction at 0.5 % strength: 0.7
[2]; Staphylococcus aureus, ATCC6538, 1 min, dose 0.600 % w/v, 60 s, read-out: Log reduction
  log reduction at 0.6 % strength: 2.3
[2]; Staphylococcus aureus, ATCC6538, 1 min, dose 0.650 % w/v, 60 s
  log reduction at 0.65 % strength: 3.5
[2]; Staphylococcus aureus, ATCC6538, 1 min, dose 0.700 % w/v, 60 s, read-out: Log reduction
  log reduction at 0.7 % strength: 5.9
[2]; Staphylococcus aureus, ATCC6538, 1 min, dose 0.800 % w/v, 60 s
  log reduction at 0.8 % strength: 6.9
[3]; Dose 0.3 % w/v, read-out: Log reduction
  log reduction at 0.3 % strength: 0.6
[3]; Dose 0.35 % w/v
  log reduction at 0.35 % strength: 1.6
[3]; Dose 0.45 % w/v, read-out: Log reduction
  log reduction at 0.45 % strength: 6.2
[3]; Dose 0.475 % w/v
  log reduction at 0.475 % strength: 5.9
[3]; Dose 0.5 % w/v
  log reduction at 0.5 % strength: 7

## COc1ccc(C=O)cc1 [Aldehyde Anisique]
[4]; Dose 0.4 % w/v
  Effect fraction: 0.190
  Log reduction: 1.5
[4]; Dose 0.42 % w/v
  Effect fraction: 0.370
  Log reduction: 2.8
[4]; Dose 0.46 % w/v
  Effect fraction: 0.670
  Log reduction: 5.2
[4]; Dose 0.5 % w/v
  Effect fraction: 1.000
  Log reduction: 7.7

## OCc1ccccc1 [Benzyl alcohol]
[1]; Escherichia coli, ATCC10536, 45 s, dose 1.000 % w/v
  log reduction at 1 % strength: 0.2
[1]; Escherichia coli, ATCC10536, 45 s, dose 1.200 % w/v
  log reduction at 1.2 % strength: 2
[1]; Escherichia coli, ATCC10536, 45 s, dose 1.300 % w/v
  log reduction at 1.3 % strength: 4.3
[1]; Escherichia coli, ATCC10536, 45 s, dose 1.400 % w/v
  log reduction at 1.4 % strength: 5.9
[1]; Escherichia coli, ATCC10536, 45 s, dose 1.600 % w/v
  log reduction at 1.6 % strength: 7.3

## OC/C=C/c1ccccc1 [Cinnamic Alcohol Ord]
[1]; dose 0.200 % w/v
  Effect fraction: 0.00
  Log reduction: 0
[1]; dose 0.250 % w/v
  Effect fraction: 0.02
  Log reduction: 0.2
[1]; dose 0.300 % w/v
  Effect fraction: 0.17
  Log reduction: 1.3
[1]; dose 0.350 % w/v
  Effect fraction: 0.52
  Log reduction: 4.0
[1]; dose 0.400 % w/v
  Effect fraction: 1.00
  Log reduction: 7.6

## O=C/C=C/c1ccccc1 [Cinnamic aldehyde]
[2]; Staphylococcus aureus, ATCC6538, 1 min, Dose 0.25 % w/v, BCT 60 s
  log reduction at 0.25 % strength: 0.3
[2]; Staphylococcus aureus, ATCC6538, 1 min, Dose 0.3 % w/v, BCT 60 s
  log reduction at 0.3 % strength: 2.9
[2]; Staphylococcus aureus, ATCC6538, 1 min, Dose 0.325 % w/v, BCT 60 s
  log reduction at 0.325 % strength: 4.2
[2]; Staphylococcus aureus, ATCC6538, 1 min, Dose 0.35 % w/v, BCT 60 s
  log reduction at 0.35 % strength: 6.5
[2]; Staphylococcus aureus, ATCC6538, 1 min, Dose 0.4 % w/v, BCT 60 s
  log reduction at 0.4 % strength: 7.1

## CCOC(=O)C=Cc1ccccc1 [Ethyl Cinnamate]
[1]; Escherichia coli, ATCC10536, 45 s, dose 0.030 % w/v
  log reduction at 0.03 % strength: 1
[1]; Escherichia coli, ATCC10536, 45 s, dose 0.035 % w/v
  log reduction at 0.035 % strength: 3.7
[1]; Escherichia coli, ATCC10536, 45 s, dose 0.040 % w/v
  log reduction at 0.04 % strength: 5.4
[1]; Escherichia coli, ATCC10536, 45 s, dose 0.045 % w/v
  log reduction at 0.045 % strength: 7.3

## COC(C)(C)CCCC(C)C=O (stereo not drawn) [Methoxymelonal]
[2]; Dose 0.600 % w/v, BCT 60 s
  Effect fraction: 0.020
  Log reduction: 0.1
[2]; Dose 0.800 % w/v, BCT 60 s
  Effect fraction: 0.110
  Log reduction: 0.8
[2]; Dose 0.900 % w/v, BCT 60 s
  Effect fraction: 0.360
  Log reduction: 2.6
[2]; Dose 1.000 % w/v, BCT 60 s
  Effect fraction: 0.700
  Log reduction: 5.1
[2]; Dose 1.200 % w/v, BCT 60 s
  Effect fraction: 0.970
  Log reduction: 7.1

## OCCc1ccccc1 [PEA]
[1]; dose 0.650 % w/v
  Effect fraction: 0.00
  Log reduction: 0.0
[1]; dose 0.700 % w/v
  Effect fraction: 0.01
  Log reduction: 0.1
[1]; dose 0.750 % w/v
  Effect fraction: 0.11
  Log reduction: 0.8
[1]; dose 0.800 % w/v
  Effect fraction: 0.16
  Log reduction: 1.2
[1]; dose 0.850 % w/v
  Effect fraction: 0.60
  Log reduction: 4.3

## CCC(CC(C)CC)=NO (stereo not drawn) [Stemone]
[2]; Dose 0.1 % w/v, BCT 60 s
  Effect fraction: 0.050
  Log reduction: 0.4
[2]; Dose 0.120 % w/v, BCT 60 s
  Effect fraction: 0.220
  Log reduction: 1.6
[2]; Dose 0.140 % w/v, BCT 60 s
  Effect fraction: 0.660
  Log reduction: 4.8
[2]; Dose 0.15 % w/v, BCT 60 s
  Effect fraction: 0.890
  Log reduction: 6.4
[2]; Dose 0.160 % w/v, BCT 60 s
  Effect fraction: 1.000
  Log reduction: 7.2

## CC(=O)OC(C)c1ccccc1 (stereo not drawn) [Styrallyl Acetate]
[1]; dose 0.120 % w/v
  Effect fraction: 0.03
  Log reduction: 0.3
[1]; dose 0.140 % w/v
  Effect fraction: 0.09
  Log reduction: 0.7
[1]; dose 0.160 % w/v
  Effect fraction: 0.37
  Log reduction: 2.7
[1]; dose 0.200 % w/v
  Effect fraction: 1.00
  Log reduction: 7.4
[1]; dose […] w/v
  Effect fraction: 0.86
  Log reduction: 6.4
